Results as given in US11952356B2, “Crystalline form of 1,4-bis[1,2-benzisoselenazol-3(2H)-one]-butane, method for preparing same and use thereof” (SHANGHAI YUANXI MEDICINE CORP., priority 2019, dated 2024).
Read-outs that look alike come from different tables or passages of the source.

Legend:
[1] = Grinding test, crystalline form by XRD; format: physicochemical
H22 cells = experiment: Tumor inhibitory activity assay in H22 mice; format: in vivo, mouse; settings: 180 mg/kg once daily oral gavage; for Tumor growth inhibition: n=10
Procedure: After 2 days of acclimation, qualified animals were randomized into 4 groups with 10 animals each. On day 0, H22 cells were grafted at 1×10^4/mouse subcutaneously at the right axilla. The treatment started at 24 h after grafting. Long and short diameters of tumor were recorded daily and the tumor size was calculated according to the formula: long diameter×short diameter^2×0.5236. The body weight was measured every 2 days. After 21 days of treatment, blood was collected from eyeballs after chloral hydrate anesthesia. The mice were sacrificed and tumors were collected quickly.

HBV [2] = experiment: HBeAg assay in culture supernatant; format: cell-based
Procedure: (§1) Cell plating: HepAD38 cells were seeded in 24-well plates at a density of 8×10^4 cells/well, each well containing 500 μL of culture medium. Treatment: 9 h after plating, the cells were observed. […] The cells were cultured for 48 h, washed with PBS twice, added with the above drugs, and cultured for another 48 h. After the 48 h, the supernatant was collected, and HBV DNA, HBsAg, and HBeAg in the supernatant were detected. HBV DNA was preferentially determined.
HBsAg and HBeAg assays in culture supernatant: The assay was time-resolved immunofluorescence (ELISA) according to HBsAg and HBeAg assay kits of PE Corporation.
After 48 h, 1 mL of cell culture supernatant was collected for detecting HBsAg and HBeAg. The cells were washed at least 5 times with PBS. 1 mL of the last PBS washings was collected and used as the baseline for determining whether the plasmids were washed away. Note: when washing the cells, PBS was slowly added into the dish along the wall of the dish without resuspending the cells. The dish was then gently shaken to wash the cells, and the residual PBS was discarded after each washing to minimize the plasmid residues.

[3] = Stability test of crystalline form I (XRD after storage); format: physicochemical; settings: 40° C./75% relative humidity and 60° C., 3 to 7 days
HBV [4] = experiment: HBV DNA assay in HepAD38 culture supernatant; format: cell-based; settings: for Supernatant HBV DVA level: HepAD38 cells
Procedure: as §1
HBV DNA assay in culture supernatant: According to TransGen's Viral Nucleic Acid Extraction kit, the nucleic acid was extracted and by SYBR green qPCR, the viral DNA load was determined.
(§2) Procedures for determining HBV DNA, HBV RNA, HBsAg and HBeAg in cell culture supernatant are as follows:
(§3) The cells were transferred to a larger culture dish, and cultured in a culture medium for 3 days. 1 mL of cell supernatant was collected for detecting HBV DNA and HBV RNA. If the detection was not timely performed, the samples were stored at −20° C.
(§4) 1 mL of collected cell culture supernatant and the last PBS washings collected at 48 h were centrifuged at 5000 rpm for 5 min. 200 μL of the supernatant after centrifugation was added to 5 μL of DNaseI+5 μL of DNasel buffer, well mixed and subjected to instantaneous centrifugation. The supernatant was incubated for 1 h at 37° C., mixed once every 30 min, and subjected to instantaneous centrifugation. After 1 h, 5 μL of EDTA was added and the system was incubated at 65° C. for 10 min before the DNaseI reaction was terminated.
(§5) 200 μL of HBV nucleic acid in cell supernatant was concentrated into a system of 20 μL by using a TransGene's HBV nucleic acid extraction kit.
(§6) The supernatant HBV DNA level and the baseline level of plasmid in PBS after DNase treatment were measured by real-time PCR. After reverse transcription of HBV RNA into cDNA, real time PCR was performed to detect the level.

HBV [5] = experiment: HBV RNA assay in cell culture supernatant; format: cell-based
Procedure: as §1, §2, §3, §4, §5, §6
(2) cDNA quantitative system after reverse transcription of HBV RNA: […]

[6] = system: hepatic fibrosis animal model; experiment: CCl4-induced hepatic fibrosis animal model; format: in vivo, Balb/c mice; settings: for average body weight / ALB (serum) / ALP (serum) / ALT (serum) / AST (serum) / TGF (serum) / TP (serum) / TrxR1 (serum): end of study; for ALB (serum) / ALP (serum) / ALT (serum) / AST (serum) / TGF (serum) / TP (serum) / TrxR1 (serum): model group = 1.00
Procedure: Animals: Balb/c inbred mice, male, six weeks old, purchased from Peking University, Health Science Center, Department of Laboratory Animal Science, with license number SCXK(Jing)2016-0010. The breeding environment was clean. The accommodation temperature was 25±2° C. The mice were bred in 12-hour light/darkness cycle, and had sufficient food and water supply.
After being prepared into a solution or suspension, the compound was administered to the mice at a dose of 5 mL/Kg.
20 male Balb/c mice aged 6 weeks were randomized into 4 groups. After a staged gradient induction using 25% CCl4 for 4 weeks (three times a week), the treatment started in the BSL (90 mg/kg) group and the BSM (180 mg/kg) group once a day, and the control group and model group were administered with 5‰ CMC-Na solution. After 8 weeks of induction, the mice were sacrificed and the blood was collected and centrifuged at 3000 rpm for 15 min to give the serum for detecting TGF-β1, TrxR1, AST, ALT, ALP, TP and the expression (hepatic fibrosis animal model is shown in FIG. 6). Part of liver was fixed with 4% paraformaldehyde, and subjected to immunohistochemical HE staining and Masson staining. Expressions of α-SMA and Collagen I in liver tissue were detected immunohistochemically. Part of liver was preserved in liquid nitrogen.

[7] = BSL and BSM groups vs model group

O=c1c2ccccc2[se]n1CCCCn1[se]c2ccccc2c1=O [Crystalline form I, 1,4-BIS[1,2-BENZISOSELENAZOL-3(2H)-one]-butane]
Crystalline form after grinding (XRD) ([1]; listed as Example 1): Crystalline form I | Mean tumor weight (H22 cells; after 21 days of treatment): 138.33 mg | Tumor growth inhibition (tumor weight) (H22 cells; after 21 days of treatment): 88.70% | Tumor growth inhibition (tumor weight) (H22 cells; after 21 days of treatment, listed as crystalline form I): up to 88.7% | Tumor growth inhibition (H22 cells; day 9, tumor size): 70.42% | Tumor growth inhibition (H22 cells; day 10, tumor size): 78.32% | Tumor growth inhibition (H22 cells; day 11, tumor size): 76.31% | Tumor growth inhibition (H22 cells; day 12, tumor size): 78.27% | Tumor growth inhibition (H22 cells; day 13, tumor size): 76.03% | Tumor growth inhibition (H22 cells; day 14, tumor size): 72.24% | Tumor growth inhibition (H22 cells; day 15, tumor size): 65.74% | Tumor growth inhibition (H22 cells; day 16, tumor size): 76.97% | Tumor growth inhibition (H22 cells; day 17, tumor size): 78.21% | Tumor growth inhibition (H22 cells; day 18, tumor size): 82.33% | Tumor growth inhibition (H22 cells; day 19, tumor size): 87.15% | Tumor growth inhibition (H22 cells; day 20, tumor size): 88.49% | Tumor growth inhibition (H22 cells; day 21, tumor size): 86.67% | Supernatant HBeAg level (HBV [2]; 0.5 μM): 22% | Supernatant HBeAg level (HBV [2]; 1.0 μM): 17% | Supernatant HBeAg level (HBV [2]; 5.0 μM): 43.1%^ | Inhibition effect on supernatant HBeAg (HBV [2]; summary in words): good inhibition effect | XRD pattern after storage [3]: unchanged | Supernatant HBV DVA level (HBV [4]; 0.5 μM): 62% | Supernatant HBV DVA level (HBV [4]; 1.0 μM): 63% | Supernatant HBV DVA level (HBV [4]; 5.0 μM): 70% | Inhibition effect on HBV DNA (HBV [4]; summary in words): good inhibition effect | Supernatant HBV RNA level (HBV [5]; 0.5 μM): 48% | Supernatant HBV RNA level (HBV [5]; 1.0 μM): 42% | Supernatant HBV RNA level (HBV [5]; 5.0 μM): 43% | average body weight ([6]; BSL 90 mg/kg once a day, n ≥ 4): 17 g | average body weight ([6]; BSL 90 mg/kg): 17.00 ± 0.68 g | ALB (serum) ([6]; BSL 90 mg/kg): 1.83 | ALP (serum) ([6]; BSL 90 mg/kg): 0.82 | ALT (serum) ([6]; BSL 90 mg/kg): 0.48 | AST (serum) ([6]; BSL 90 mg/kg): 0.29 | TGF (serum) ([6]; BSL 90 mg/kg): 0.76 | TP (serum) ([6]; BSL 90 mg/kg): 1.35 | TrxR1 (serum) ([6]; BSL 90 mg/kg): 0.82 | Collagen1 expression in liver (staining) [6, 7]: significantly reduced | HE staining: symptoms of hepatocyte necrosis and inflammation [6, 7]: significantly reduced | Masson staining: fibrosis symptoms [6, 7]: gradually relieved | α-SMA expression in liver (staining) [6, 7]: significantly reduced | average body weight ([6]; BSM 180 mg/kg once a day, n ≥ 4): 18 g | average body weight ([6]; BSM 180 mg/kg): 18.04 ± 2.23 g | ALB (serum) ([6]; BSM 180 mg/kg): 1.47 | ALP (serum) ([6]; BSM 180 mg/kg): 0.73 | ALT (serum) ([6]; BSM 180 mg/kg): 0.39 | AST (serum) ([6]; BSM 180 mg/kg): 0.27 | TGF (serum) ([6]; BSM 180 mg/kg): 0.85 | TP (serum) ([6]; BSM 180 mg/kg): 1.36 | TrxR1 (serum) ([6]; BSM 180 mg/kg): 0.89 | Liver surface symptoms (roughness, granular sensation) ([6]; treatment groups (BSL 90 mg/kg, BSM 180 mg/kg) vs model group): improved

O=c1c2ccccc2[se]n1CCCCn1[se]c2ccccc2c1=O [Crystalline form I-a, 1,4-BIS[1,2-BENZISOSELENAZOL-3(2H)-one]-butane]
Crystalline form after grinding (XRD) [1]: crystalline form I | Crystalline form after grinding (XRD) ([1]; listed as Comparative Example 1): Crystalline form I | Crystalline form after grinding (XRD) ([1]; listed as Comparative Example 2): Crystalline form I | Crystalline form after grinding (XRD) ([1]; listed as Comparative Example 3): Crystalline form I

C=C1[C@H](CO)[C@@H](O)C[C@@H]1n1cnc2c(=O)[nH]c(N)nc21 [ETV, entecavir, reference compound]
Supernatant HBeAg level (HBV [2]; ETV concentration not given): 36.8% | Supernatant HBV DVA level (HBV [4]; ETV concentration not given): 80%
